# Where two headings read alike, the source gives them in different places.
# Tests used:
# [1] = tested on: rat primary OPC cultures; experiment: Differentiation of rat primary OPC into MBP+ OLs; format: cell-based; conditions: 96 h, 4 days of differentiation, read-out: MBP+ differentiation (MBP+/SOX10+ OLs plus compounds / plus basal medium)
# Description: Secondary validation on primary rat OPC differentiation. Re-validation of the best performing compounds promoting OPC differentiation (fold change >1.5) was performed on primary rat OPC cultures in 96 well-plate run in triplicates by triple immunolabeling for CNPase, MBP and SOX10 as a readout. Compounds at […] were added for 4 days of differentiation and then cell cultures were imaged with ArrayScanXTI platform, number of MBP+OLs were quantified by semi-automated software. Basal medium served as a negative control, 9 cis-RA ([…]) was a positive control.
# Re-validation of the 49 compounds selected from the short list (160 compounds) using rat primary OPC cultures (compounds tested in triplicates in 3 independent experiments. The secondary validation screen of these compounds performed on rat primary OPC cultures selected 17 best lead compounds with a pro-differentiation activity (MBP+/SOX10+OLs plus compounds/MBP+SOX10+ plus basal medium fold increase) induced a strong differentiation into MBP+OLs (fold increase >1.6). Results are shown in FIG. 7.
# [2] = tested on: rat oligodendrocyte progenitor CG4 line; experiment: Differentiation assay on rat oligodendrocyte progenitor CG4 line (HCS, mCherry+); format: cell-based; conditions: secondary screen of 49 selected compounds, 1 μM, 5 days
# How it was run: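 Double-reporter CG4 cells (mCherry in mature oligodendrocytes, EGFP in all lineage stages) proliferated 24 h, then given compounds at 1 μM for 5 days of differentiation, ⅔ medium changed at day 3. 9cis-RA as positive control, basal medium and 0.1% DMSO as negative; triplicates imaged by HCS, 35 fields/well.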
# [3] = tested on: iPSC-derived neurons (DIV45)
# Description: This protocol was modified from Yuchen Qi et al.^32 First, neural progenitors (NPCs) were generated from hiPSCs by dual-SMAD inhibition. Shortly, at day 0 iPSC colonies (confluent at 70-80%) were washed with PBS Dulbecco's w/o Calcium w/o Magnesium (Euroclone) and hiPSCs' maintenance medium (mTeSR™, StemCell Technologies) was replaced with neural induction medium composed by DMEM/F12 plus N2 medium (1×), B27 without RA supplement (0.5×) (Life Technology), added with SB431542 (10 μM) and LDN (500 nM). This medium was kept until day 4 (“induction”). At day 4, cells were splitted (1:3) with the same induction medium using Accutase®/Accumax™ (StemCell Technologies) dissociated solution. Entire medium was replaced daily up to days 14-16 until rosette formation was observed (“patterning”). At days 14-16, cells were detached by Accutase®/Accumax™ and re-plated on polyornitine/laminin/fibronectin coated MW96 or MW24 plates for terminal differentiation in Neurobasal medium supplemented with B27 (0.5×), BDNF (20 ng/ml), dbcAMP (500 μM), ascorbic acid (200 μM), PD0325901 (1 μM), SU5402 (5 μM), CHIR (3 μM), human recombinant insulin (5 μg/ml), supplemented with RI (Rock inhibitor) (1:3000) to reduce dissociation induced apoptosis. The half of differentiation medium was changed every 3-4 days, supplemented with 1 μg/ml laminin and DAPT (1-2 μM) until terminal maturation of neuronal population (MAP2+ cells). Cultures were characterized by immunocytochemistry and qRT-PCR and neuroprotective experiments were performed on days 30-40 of differentiation.
# Evaluation of cytotoxicity of 160 selected compounds on iPSC-derived neurons (DIV45).
# [4] = tested on: murine cortical neurons (14 DIV); experiment: NMDA-mediated neuroprotective assay (CCK8 viability); format: cell-based, mouse; conditions: 1 μM, 3 h pre-treatment, NMDA 8 μM 24 h, p<0.05
# Description: To assess neuroprotective activity of 160 selected non-toxic compounds on primary murine cortical neurons, obtained as described in the previous paragraph, ([…]), cultures were pre-treated with 1 μM compounds for either 3 or 24 hours, followed by 24 hours chronic stimulation with NMDA (8 μM) to induce neuronal damage. Each test plate included: a negative control (untreated), vehicle-treated control (0.02% vol/vol DMSO), a positive neurotoxic control—staurosporine 0.1 μM, a stressor—NMDA 8 μM, a positive neuroprotective control—NAC 300 μM, and a combination of stressor +neuroprotective molecule (NMDA+NAC). Cell viability was measured with Cell Counting Kit-8 assay compared to NMDA-treated control.
# The potential neuroprotective activity of 160 selected non-toxic compounds was evaluated on murine cortical neurons (14 DIV) with either 3 h (FIG. 13) or 24 h compounds pre-treatment (FIG. 14). In assay with 3 h pre-treatment, 17 compounds were identified as potential NMDA-neuroprotective hits (marked with black asterisk in FIG. 13, stat. significant at p<0.05, Kruskal-Wallis test with post-hoc two-stage linear step-up procedure of Benjamini, Krieger and Yekutieli multiple comparison correction).
# [5] = tested on: mouse cortical neurons; experiment: Morphological integrity evaluation, NMDA 8 μM (MAP2 neurite length and branching); format: cell-based; conditions: 3 h pre-treatment, NMDA 8 μM 24 h; Z>0.5 criteria
# Description: Apart of viability/metabolic readout in NMDA-mediated neurotoxicity assay, a neuronal structural integrity was evaluated by MAP2 staining. Mouse cortical neurons (14 DIV) cultured in MW96 plates were fixed with 4% paraformaldehyde (PFA). Fixed cells were incubated with blocking solution (PBS 1×, donkey serum 5%, Triton 0.1%) for 1-hour, primary antibody (rabbit α-MAP2, 1:250, Millipore) was applied in the same solution overnight at +4° C. […] Nuclei were stained with 4′-6-diamidino-2-phenylindole (DAPI, Roche). Microscopy was performed using ArrayScan™XTI (ThermoFisher) imaging platform. 15 images per well were acquired and analyzed by CellProfiler. Total neurite length and the total number of non-trunk branches were analyzed. Total neurite length and the total number of branching were evaluated from 15 images/well, each compound or control was tested in triplicates. The total neurite length and total number of branches were converted to a standardized Z-score using formula: Xij=((Xij−μ)/σ), where xij is the raw measurement of the compound located in well (i, j), and μ and σ are, respectively, the mean and the standard deviation of all measurements of the plate.^31
# The morphological integrity of mouse cortical neurons upon chronic 24 h NMDA (8 μM) exposure with compounds pre-treatment (3 h) in preventive regimen was evaluated. Control (basal), DMSO, N-acetylcysteine (NAC) served as positive controls, while staurosporine and NMDA were negative controls.
# [6] = tested on: iPSC-derived glutamatergic neurons; experiment: ROS (tBuOOH)-mediated neuroprotective assay on hNeu; format: cell-based, human; conditions: control line CTR4, 1 μM, p<0.05
# Description: Neuroprotective experiments were performed using iPSC-derived glutamatergic neurons from 3 healthy controls cultured for 30-40 DIV. Cells were pre-treated for 24 h with […] of compounds, vehicle (DMSO) or 5 nM Mito-Q (mitoquinone) served as a positive control. On the next day cells were incubated for 2 h with 100 µM of tert-butyl peroxide (tBuOOH, Sigma), then the medium was replaced and the viability readout by CCK8 viability assay kit (Dojindo) was performed on the following day. The cell viability was expressed as normalized Z score and compared to tBuOOH-treated cells with nonparametric Kruskal-Wallis test with Dunn's multiple comparisons correction.
# 32 “Front runners” and 7 compounds from short list were tested on iPSC-derived neurons from three control lines in ROS-mediated assay to evaluate a neuroprotective potential of selected compounds. Three independent experiments were performed for CTR4 and CTR8, FIG. 20 (A, C), while two independent experiments were performed for CTR7, FIG. 20 (B).
# [7] = tested on: human iPS-derived neuroprecursors; experiment: Differentiation of human iPS-derived neuroprecursors into MBP+ oligodendrocytes; format: cell-based; conditions: 1 μM in minimal medium, p<0.05
# Source text: NPC bearing a doxycycline inducible polycistronic construct containing SOX10, OLIG2 and NKX6.2^29 in a human safe harbor (passages 10 to 25) were singularized on day −3 by treatment with Accutase and plated on Matrigel-coated 12-well plates at a density of 100.000 cells per well in N2B27-medium containing equal parts of neurobasal (Invitrogen) and DMEM-F12 medium (Invitrogen) with 1:100 B27 supplement lacking vitamin A (Invitrogen), 1:200 N2 supplement (Invitrogen), 1% penicillin/streptomycin/glutamine (PSG), 3 μM CHIR99021 (Axon Medchem), 150 μM ascorbic acid and 0.5 μM SAG. The next day medium was changed to N2B27-medium containing 1 μg/ml doxycycline. On DO medium was changed to glial-induction medium (GIM) consisting of DMEM-F12 with 1:100 B27 supplement lacking vitamin A, 1:200 N2 supplement, 1% PSG, 1 μM SAG, 10 ng/mL NT3 (Peprotech), 10 ng/mL IGF-I (Peprotech), 200 μM AA (Sigma), 1:1000 Trace Elements B (Corning). For full medium conditions 10 ng/ml T3 was added. On Day 2 medium was changed to glial-differentiation medium (GDM) comprising DMEM-F12 with 1:100 B27 supplement lacking vitamin A, 1:200 N2 supplement, 1% PSG, 100 μM dbCAMP (Sigma), 100 μM AA, 1:1000. For full medium conditions 60 ng/mL T3, Trace Elements B 10 ng/mL, IGF-I, 10 ng/mL and NT3 were added to the culture. GDM was changed every other day. On day 7 cells were detached by treatment with Accutase and re-plated on laminin coated 48-well plates at densities of 10.000-12.000 cells per well. After 24 h cells were treated in minimal medium with either vehicle alone [0.01% (vol/vol) DMSO] as a negative control, 60 ng/mL T3 as a positive control, or with a drug candidate dissolved in DMSO. Medium was changed every other day. On D16 doxycycline was removed from the medium. Cells were fixed on D21 and analyzed via immunocytochemistry.
# Immunocytochemistry. Cells were initially fixed with 4% PFA treatment for 20 min, RT. Following three washes with PBS cells were incubated with blocking solution containing 5% normal goat serum (NGS) and 5% FCS (fetal calf serum) in PBS for 30 min at RT to prevent unspecific binding of the antibodies. To detect intracellular antigens cells were permeabilized by adding 0.5% Triton X-100 to the Blocking-solution. Cells treated with Triton X-100 were washed three times with PBS each time for 5 min at RT. Primary antibodies (rat anti-MBP,1:50, Abcam, AB7349) were applied overnight, 4° C., in blocking solution. The next day cells were washed 3 times with PBS at RT, and afterwards incubated with secondary antibodies (AF488 Alexa Fluor anti-rat (goat), 1:500, Jackson/Dianova, #112-545-167) diluted in PBS for 1 h at RT. Secondary antibodies were subsequently removed by washing 3 times with PBS. Afterwards PBS containing a Dapi staining for nuclei was added for 5 minutes and afterwards washed off with PBS. Cells were kept at 4° C. until imaging.
# Imaging and evaluation. From each condition (triplicates) 20-30 pictures were taken randomly chosen by the Dapi-signal. Cell numbers were determined by using an ImageJ Macro to count the nuclei whereas MBP positive cells were subsequently counted manually in black and white images.
# The effect on oligodendroglial differentiation of 32 compounds (“Front runners”) was tested. Induced pluripotent stem cells in which the transcription factors SOX10, OLIG2, NKX6.2 were inserted in a doxycycline inducible manner into a human safe harbor were differentiated into neural stem cells. Differentiation into oligodendrocytes was induced by addition of doxycycline. Cells were cultured either in a minimal medium (MM) (negative control) or in MM with the different compounds at a concentration of 1 μM. Addition of T3 to the minimal medium served as a positive control.
SMILES,CG4 differentiation compared with 9cis-RA positive control [2],viability compared to DMSO ([3]; human),neuroprotection of viability/metabolic activity against NMDA [4],further results
"Cc1c(Cc2ccc3ccccc3n2)c2cc(F)ccc2n1CC(=O)O [0C000459, TIMAPIPRANT]",promoting differentiation significantly higher than 9cis-RA positive control,65-80%,hit compounds,fold induction at 1 µM [1]: > 1.6
CNCc1ccc(C)c(NC(=O)c2ccc(Nc3nc(-c4ccccc4)c4ccccc4n3)cc2)c1 [BMS-833923],promoting differentiation significantly higher than 9cis-RA positive control,65-80%,–,–
Cc1nc(C#Cc2ccnc(Cl)c2)c(C)n1-c1ccc(F)cc1 [Basimglurant],–,65-80%,–,preservation of neurite length and network integrity (branching) [5]: preserved both neurite length and the network integrity (branching)
OC1CCC(Nc2nc(-c3ccccc3)nc3[nH]ccc23)CC1 (centres unmarked) [Derenofylline],–,65-80%,–,–
Oc1ccc([C@H]2COc3cc(O)ccc3C2)cc1 [Equol],promoting differentiation significantly higher than 9cis-RA positive control,–,–,protection from tBuOOH insult [6]: protected from tBuOOH insult
CNC(=O)c1ccc(Oc2ccc3c(c2)CCN(C2CCC2)CC3)nc1 [GSK189254],promoting differentiation significantly higher than 9cis-RA positive control,–,hit compounds,protection from tBuOOH insult [6]: protected from tBuOOH insult; differentiation into MBP+ oligodendrocytes [7]: promote significantly (p<0.05) the differentiation into MBP+ oligodendrocytes; differentiation into MBP+ oligodendrocytes ([7]; listed as Gsk189254): promote significantly the differentiation into MBP+ oligodendrocytes
CCn1c(=O)c2c(nc(/C=C/c3ccc(OC)c(OC)c3)n2C)n(CC)c1=O [Istradefylline],–,65-80%,–,–
CC[C@@H](Oc1cccc(CN(CCCOc2ccc(OC)cc2)c2nc3ccccc3o2)c1)C(=O)O [K-877 Pemafibrate],–,–,–,viability compared to DMSO [3]: 65-80%
CC1(C)CC(C)(C)CC(C)(N)C1 [Neramexane],promoting differentiation significantly higher than 9cis-RA positive control,–,hit compounds,preservation of neurite length and network integrity (branching) [5]: preserved both neurite length and the network integrity (branching); viability compared to DMSO [3]: 65-80%
COc1cccc(OC)c1-c1cc(C(=O)NC2(C(=O)O)C3CC4CC(C3)CC2C4)nn1-c1ccnc2cc(Cl)ccc12 (centres unmarked) [Reminertant],–,65-80%,–,–

# Source: US20240148745A1, “COMPOUNDS FOR USE IN PROGRESSIVE MULTIPLE SCLEROSIS” (FONDAZIONE CENTRO SAN RAFFAELE, priority 2021, published 2024)
